The subject of series [1] is Rattus norvegicus. Put plainly: Anticonvulsant activity in Wistar rat assessed as protection against maximal electroshock-induced convulsions at 10 mg/kg, ip administered 30 mins before MES challenge. It counts as functional, organism-based. Also on record: dose 10 mg/kg.
A further series addresses Histamine H4 receptor (Homo sapiens, UniProt Q9H3N8). Put plainly: Displacement of [3H]histamine from human H4 receptor expressed in Sf9 cell membrane co-transfected with Galphai2 and Gbeta1gamma2 after 60 mins by liquid scintillation counting analysis.
In the next series the target is Histamine H1 receptor (Homo sapiens, UniProt P35367). Put plainly: Displacement of [3H]pyrilamine from human H1 receptor expressed in CHO cell membrane after 120 mins by liquid scintillation counting analysis. It counts as cell membranes.
Histamine H1 receptor, sequence (P35367 whole entry): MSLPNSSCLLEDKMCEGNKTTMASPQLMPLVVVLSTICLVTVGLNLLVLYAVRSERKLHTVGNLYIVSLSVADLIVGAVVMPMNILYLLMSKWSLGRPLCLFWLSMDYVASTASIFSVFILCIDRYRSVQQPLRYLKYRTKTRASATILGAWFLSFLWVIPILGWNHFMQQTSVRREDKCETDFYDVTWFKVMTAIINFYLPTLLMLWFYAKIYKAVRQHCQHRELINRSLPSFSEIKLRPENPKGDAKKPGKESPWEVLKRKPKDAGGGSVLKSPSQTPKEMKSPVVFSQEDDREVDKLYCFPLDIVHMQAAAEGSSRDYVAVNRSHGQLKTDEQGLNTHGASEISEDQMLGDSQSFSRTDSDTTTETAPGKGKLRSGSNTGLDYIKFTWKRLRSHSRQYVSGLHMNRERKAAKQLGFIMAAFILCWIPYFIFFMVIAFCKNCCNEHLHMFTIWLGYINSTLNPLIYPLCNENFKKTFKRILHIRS
In series [2] the test system is Rattus norvegicus. In words: Anticonvulsant activity in Wistar rat assessed as protection against maximal electroshock-induced convulsions at 1 to 10 mg/kg, ip administered 30 mins before MES challenge. It counts as functional, organism-based.
The next series deals with Histamine H3 receptor (Homo sapiens, UniProt Q9Y5N1). In words: Displacement of [3H]N-alpha-methylhistamine from human H3 receptor expressed in HEK-293 cell membrane after 90 mins by liquid scintillation counting analysis. The format is cell membranes, HEK293.
Histamine H3 receptor, sequence (Q9Y5N1 whole entry): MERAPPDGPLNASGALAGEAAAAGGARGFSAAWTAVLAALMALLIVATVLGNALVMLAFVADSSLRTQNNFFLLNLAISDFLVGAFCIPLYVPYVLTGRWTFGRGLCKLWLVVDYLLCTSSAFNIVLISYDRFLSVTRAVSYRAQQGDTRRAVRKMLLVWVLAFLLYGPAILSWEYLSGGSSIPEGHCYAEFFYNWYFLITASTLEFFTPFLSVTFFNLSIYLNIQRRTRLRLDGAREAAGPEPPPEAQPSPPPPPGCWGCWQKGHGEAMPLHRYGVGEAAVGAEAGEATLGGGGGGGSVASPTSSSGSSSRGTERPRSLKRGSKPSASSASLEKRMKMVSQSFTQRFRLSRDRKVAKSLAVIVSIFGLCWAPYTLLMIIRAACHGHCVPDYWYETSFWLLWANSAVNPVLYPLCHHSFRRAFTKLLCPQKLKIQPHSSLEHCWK
Series [3] concerns Rattus norvegicus. Put plainly: Anticonvulsant activity against PTZ-kindled convulsion Wistar rat model assessed as reduction in convulsions at 1 mg/kg, ip administered 30 mins before PTZ challenge measured for 10 to 30 mins. Details: dose 1 mg/kg. The format is functional, organism-based.
For series [4], the system named is Rattus norvegicus. In words: Anticonvulsant activity against PTZ-kindled convulsion Wistar rat model assessed as latency for the first atypical behaviours at 10 mg/kg, ip administered 30 mins before PTZ challenge. Also on record: dose 10 mg/kg. It counts as functional, organism-based.
The test system of series [5] is Rattus norvegicus. In words: Anticonvulsant activity against PTZ-kindled convulsion Wistar rat model assessed as decrease in total convulsion time at 10 mg/kg, ip administered 30 mins before PTZ challenge. Also on record: dose 10 mg/kg. The format is functional, organism-based.
In series [6] the test system is Rattus norvegicus. Put plainly: Anticonvulsant activity against PTZ-kindled convulsion Wistar rat model assessed as reduction in convulsions at 10 mg/kg, ip administered 30 mins before PTZ challenge measured for 10 to 30 mins. It counts as functional, organism-based. Also on record: dose 10 mg/kg.
Series [7] relates to Rattus norvegicus. Put plainly: Anticonvulsant activity against PTZ-kindled convulsion Wistar rat model assessed as increase in latency time to clonic-tonic convulsions at 10 mg/kg, ip administered 30 mins before PTZ challenge. It counts as functional, organism-based. Details: dose 10 mg/kg.
Series [8] has as its system Rattus norvegicus. In words: Anticonvulsant activity in Wistar rat assessed as protection against maximal electroshock-induced convulsions at 1 mg/kg, ip administered 30 mins before MES challenge. It counts as functional, organism-based. Details: dose 1 mg/kg.
In series [9] the test system is Rattus norvegicus. Put plainly: Anticonvulsant activity against PTZ-kindled convulsion Wistar rat model assessed as prolongation of latency time to myoclonic convulsions at 10 mg/kg, ip administered 30 mins before PTZ challenge. It counts as functional, organism-based. Details: dose 10 mg/kg.
Series [10] relates to Rattus norvegicus. Put plainly: Anticonvulsant activity against PTZ-kindled convulsion Wistar rat model assessed as reduction in convulsions at 1 to 10 mg/kg, ip administered 30 mins before PTZ challenge measured for 10 to 30 mins. The format is functional, organism-based.
Series [11] relates to Rattus norvegicus. Put plainly: Proconvulsant activity in maximal electroshock-induced convulsions Wistar rat model assessed as tonic hindlimb extensions at 1 to 10 mg/kg, ip administered 30 mins before MES challenge. The format is ADME, organism-based. Details: dose 1-10 mg/kg, route intraperitoneal. The conditions noted are these: in vivo, 0.5 h.

We go through eight compounds from ChEMBL document CHEMBL3232823, “Non-imidazole histamine H3 receptor ligands incorporating antiepileptic moieties” (Eur J Med Chem, 2014).

Each structure is given as a SMILES string. Calls of active or inactive are those of the source. The rule behind the calls is not given here.

Histamine H4 receptor, sequence (Q9H3N8 whole entry): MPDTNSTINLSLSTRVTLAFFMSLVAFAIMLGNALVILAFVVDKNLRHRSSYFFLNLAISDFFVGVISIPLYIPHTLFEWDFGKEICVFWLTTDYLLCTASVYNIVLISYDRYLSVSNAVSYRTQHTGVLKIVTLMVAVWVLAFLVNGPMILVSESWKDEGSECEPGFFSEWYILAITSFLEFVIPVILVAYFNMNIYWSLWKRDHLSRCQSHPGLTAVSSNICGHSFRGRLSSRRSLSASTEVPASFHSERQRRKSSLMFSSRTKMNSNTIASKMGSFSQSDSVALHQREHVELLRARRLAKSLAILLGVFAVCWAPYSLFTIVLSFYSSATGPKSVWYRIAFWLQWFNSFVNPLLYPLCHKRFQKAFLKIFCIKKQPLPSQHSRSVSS

Take `Clc1ccc(CCCOCCCN2CCCCC2)cc1` [PITOLISANT]: the outcome in the series with Rattus norvegicus [1] was Active. At Histamine H4 receptor, this compound had an inhibitory constant (Ki) of over 10 µM.

In the case of `Cc1nnc(C)n1-c1ccc(OCCCN2CCCCC2)cc1`, the inhibition constant (Ki) at Histamine H1 receptor was 29.5 µM; on Histamine H3 receptor it was 0.000933 µM; on Histamine H4 receptor, 20.4 µM. In the series on Rattus norvegicus [2], the result was inactive.

`C[C@H](NCc1ccc(OCCCN2CCCCC2)cc1)C(N)=O`: the inhibitory constant (Ki) at Histamine H1 receptor is 31.6 µM; on Histamine H3 receptor, 0.0427 µM; at Histamine H4 receptor it was 331 µM. In addition, the result with Rattus norvegicus [2] was inactive.

For the compound `O=C1NC(c2ccccc2)(c2ccccc2)C(=O)N1CCCN1CCCCC1`, the inhibition result in the series with Rattus norvegicus [3] was “inactive”. For the same compound, the outcome with Rattus norvegicus [4] was inactive. Besides, the outcome with Rattus norvegicus [5], in the series on Rattus norvegicus [7], with Rattus norvegicus [8] and with Rattus norvegicus [9] was Active. In the series with Rattus norvegicus [6], the inhibition result was “Active”. For the same compound, the results for the Ki at Histamine H1 receptor, at Histamine H3 receptor and at Histamine H4 receptor were 6.17 µM, 0.562 µM and 490 µM, respectively.

Consider `O=C1NC(c2ccccc2)(c2ccccc2)C(=O)N1Cc1ccc(OCCCN2CCCCC2)cc1`, for which the inhibition entry with Rattus norvegicus [10] was “inactive”. For the same compound, the Ki is 2.24 µM on Histamine H1 receptor, 0.0759 µM on Histamine H3 receptor and 9.33 µM on Histamine H4 receptor. In the series on Rattus norvegicus [2], the result was inactive. Besides, in the series on Rattus norvegicus [11], the Activity result is listed as “Toxic”.

For the compound `O=C1NC(=O)C(c2ccccc2)(c2ccccc2)N1`, in the series on Rattus norvegicus [1], the outcome was Active.

Consider `Cc1nnc(-c2cccnc2)n1-c1ccc(OCCCN2CCCCC2)cc1`, for which the inhibition constant Ki at Histamine H1 receptor was 10.5 µM; on Histamine H3 receptor, 0.00024 µM; on Histamine H4 receptor, 1410 µM. Besides, the result with Rattus norvegicus [2] was inactive.

For the compound `S=C(NC1CCCCC1)N1CCC(c2cnc[nH]2)CC1` [THIOPERAMIDE], on Histamine H1 receptor, the Ki is over 10 µM.
